Experimental data from US20220053764A1, “METHOD OF CONTROLLING WEEDS” (SUMITOMO CHEMICAL COMPANY, LIMITED, priority 2018, published 2022).
Counter-ions that a name gives are not always drawn.

Legend:
Format in all cases: in vivo
[1] = test system: glyphosate-sensitive Amaranthus palmeri; assay: Herbicidal effect, foliar spray on potted weeds in greenhouse; conditions: rating 0 to 100, 14 days after foliar spray, 200 L/ha
Protocol: (§1) In a plastic pot filled with soli were seeded glyphosate-resistant Amaranthus palmeri in which the number of copies of EPSPS gene had been increased (produced by Azlin Seed Service) and glyphosate-sensitive Amaranthus palmeri (produced by Azlin Seed Service). The weeds were cultivated in a greenhouse for 18 days, and then an aqueous spray liquid [i.e., a liquid prepared by diluting a predetermined amount of a trifludimoxazin formulation (i.e., an emulsifiable concentrate prepared by mixing 20 parts of trifludimoxazin with 80 parts of a liquid cocktail (i.e., a mixture of 5 parts of cyclohexanone and 1 part of SORPOL 2680X (manufactured by TOHO Chemical Industry Co., Ltd.))) with water containing a spreading agent] was sprayed uniformly from above the weeds at the amount of 200 L/ha using a sprayer. Subsequently, the weeds were allowed to grow in a greenhouse for 14 days, and then the herbicidal effect was examined. As a reference example, the same procedure was carried out, except that the trifludimoxazin formulation was replaced with a predetermined amount of a glyphosate formulation (i.e., a soluble liquid containing 660 g/L of glyphosate potassium salt: “ROUNDUP MAXLOAD” (manufactured by Nissan Chemical Corporation). The results are shown in the table 1.

[2] = test system: glyphosate-resistant Amaranthus palmeri in which the number of copies of EPSPS gene had been increased; assay: as above; conditions: rating 0 to 100, 14 days after foliar spray, 200 L/ha
Protocol: as §1

[3] = test system: glyphosate-resistant weeds (Amaranthus palmeri, waterhemp, kochia, marestail, Guernsey fleabane, fleabane, goosegrass, darnel) and volunteer …; assay: Soil treatment on day of seeding, greenhouse pot test (Example 1); conditions: soil treatment at 6.25, 12.5, 25, 50, 100 or 150 g/ha; 200 L/ha; twenty-eight days after the treatment
Protocol: (§2) In a plastic pot filled with soil are seeded glyphosate-resistant Amaranthus palmeri in which the number of copies of EPSPS gene has been increased, glyphosate-resistant waterhemp in which the number of copies of EPSPS gene has been increased, glyphosate-resistant kochia in which the number of copies of EPSPS gene has been increased, marestail which is resistant to glyphosate by involving an ABC transporter, Guernsey fleabane which is resistant to glyphosate by involving an ABC transporter, fleabane which is resistant to glyphosate by involving an ABC transporter, glyphosate-resistant goosegrass having Thr102Ile, glyphosate-resistant goosegrass having Pro106Ser, glyphosate-resistant goosegrass having Pro106A1a, glyphosate-resistant goosegrass having Pro106Leu, glyphosate-resistant goosegrass having Thr102Ile and Pro106Ser, glyphosate-resistant darnel having Thr102Ile, glyphosate-resistant darnel having Pro106Ser, glyphosate-resistant darnel having Pro106Ala, glyphosate-resistant darnel having Pro106Leu, volunteer glyphosate-tolerant soybean, and volunteer glyphosate-tolerant cotton. On the same day, the soil is treated with trifludimoxazin at the application rate of 6.25, 12.5, 25, 50, 100 or 150 g/ha. The amount of a liquid sprayed is 200 L/ha. Subsequently, the plants are cultivated in a greenhouse.

[4] = test system: glyphosate-resistant weeds (Amaranthus palmeri, waterhemp, kochia, marestail, Guernsey fleabane, fleabane, goosegrass, darnel) and volunteer …; assay: Foliar treatment 21 days after seeding, greenhouse pot test (Example 2); conditions: foliar treatment at 6.25, 125, 25, 50, 100 or 150 g/ha; 200 L/ha; fourteen days after the treatment
Protocol: as §2, with “Pro106Ala,” for “Pro106A1a,”, “The plants are cultivated in a greenhouse for 21 days, and then trifludimoxazin is applied to foliage of” for “On”, “plants” for “same day, the soil is treated with trifludimoxazin”, “at” for “at the”, “[…],” for “12.5,”

Structure (SMILES)	Effect on glyphosate-sensitive Amaranthus palmeri ([1]; application rate 385 g/ha)	Effect on glyphosate-sensitive Amaranthus palmeri ([1]; application rate 1540 g/ha)	Effect on glyphosate-resistant Amaranthus palmeri ([2]; application rate 1540 g/ha)	Effect on glyphosate-resistant Amaranthus palmeri ([2]; application rate 6160 g/ha)	effect against the weeds [3]	effect against the weeds [4]	Effect on glyphosate-sensitive Amaranthus palmeri ([1]; application rate 6.25 g/ha)	Effect on glyphosate-sensitive Amaranthus palmeri ([1]; application rate 12.5 g/ha)	Effect on glyphosate-sensitive Amaranthus palmeri ([1]; application rate 25 g/ha)	Effect on glyphosate-resistant Amaranthus palmeri ([2]; application rate 6.25 g/ha)	Effect on glyphosate-resistant Amaranthus palmeri ([2]; application rate 12.5 g/ha)	Effect on glyphosate-resistant Amaranthus palmeri ([2]; application rate 25 g/ha)
O=C(O)CNCP(=O)(O)O [Glyphosate potassium salt, glyphosate potassium salt]	100	100	20	70								
C#CCN1C(=O)C(F)(F)Oc2cc(F)c(-n3c(=O)n(C)c(=S)n(C)c3=O)cc21 [Trifludimoxazin, trifludimoxazin]					significant effect	significant effect	65	70	80	100	100	100
